The values below come from patent US8653126B2, “Imidazole derivative” (Daiichi Sankyo Company, Limited, priority 2010, dated 2014).

This experiment has as its target T1, S1P lyase (Mus musculus, UniProt Q8R0X7).
T1 construct: The extirpated thymus was crushed; from tissue; host or cells: thymus of BALB/c mice (thymus extract)
T1 sequence (Q8R0X7 1-568): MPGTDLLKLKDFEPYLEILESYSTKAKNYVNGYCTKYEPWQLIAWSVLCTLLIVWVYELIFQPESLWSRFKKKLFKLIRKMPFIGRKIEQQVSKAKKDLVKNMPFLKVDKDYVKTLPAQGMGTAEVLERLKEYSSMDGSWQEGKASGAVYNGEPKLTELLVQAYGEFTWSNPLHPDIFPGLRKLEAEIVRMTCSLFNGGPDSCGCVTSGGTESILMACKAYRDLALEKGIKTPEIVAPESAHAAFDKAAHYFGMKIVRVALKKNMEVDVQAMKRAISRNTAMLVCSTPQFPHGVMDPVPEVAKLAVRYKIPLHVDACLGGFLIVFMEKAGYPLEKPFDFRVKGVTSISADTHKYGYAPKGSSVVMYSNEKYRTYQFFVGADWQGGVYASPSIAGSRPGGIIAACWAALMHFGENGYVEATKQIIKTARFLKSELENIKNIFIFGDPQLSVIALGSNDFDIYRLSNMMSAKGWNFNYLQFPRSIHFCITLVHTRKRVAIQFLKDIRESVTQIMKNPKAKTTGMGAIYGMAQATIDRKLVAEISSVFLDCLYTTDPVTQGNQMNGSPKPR
In words: S1P lyase inhibitory capacity in mice (thymus extract after oral dosing). The experiment is classed as in vivo. Conditions: BALB/c mice, single oral dose, S1P lyase activity of thymus extract with [3H]dhS1P. How it is done:
Male BALB/c mice at age 6 weeks were purchased from Charles River Laboratories Japan Inc. Mice that had reached age 7 weeks after 1-week acclimation were used for the experiment. A group of 5 animals was used for the experiment. The necessary amount of the analyte was weighed, and subsequently suspended in a 0.5% MC solution using a mortar and a pestle. The solution to be administered was prepared so as to be 10 mL per 1 kg of body weight. The prepared compound solution was administered orally in a single dose using a stomach tube.
Dipotassium dihydrogen ethylenediaminetetraacetate (EDTA-2K, Nacalai Tesque, Inc.) was dissolved with water for injection so as to be 5% (5% EDTA-2K solution). […] At that time, the thymus was also extirpated. The obtained blood was handled under the condition of room temperature until measurement. […]
The extirpated thymus was crushed by means of either a method using zirconia beads in the presence of 500 μl, of a homogenization buffer (50 mM HEPES-NaOH (pH=7.4), 0.15 M NaCl, 10% Glycerol, 1 mM EDTA, 1 mM DTT, complete protease inhibitor cocktail (Roche, #4693132)), or a method using Potter-Elvehjem type homogenizer after mincing. […] After the proteins of the supernatant were quantified with Bradford method, the supernatant was instantly frozen with liquid nitrogen, and subsequently stored at −80° C. […]

Consider `CCOCn1cc(CO)nc1C(C)=O` [Example 1, 1-(1-Ethoxymethyl-4-hydroxymethyl-1H-imidazol-2-yl)ethanone], for which the “S1P lyase inhibition in mice” value is “inhibited S1P lyase in mice”.

As for `COCn1cc(CO)nc1C(C)=O` [Example 5, 1-(4-Hydroxymethyl-1-methoxymethyl-1H-imidazol-2-yl)ethanone], the “S1P lyase inhibition in mice” value is “inhibited S1P lyase in mice”.
